Key:
HER2 receptor = experiment: FACS analysis of HER2 receptor expression on MDA-MB-231 cells; format: cell-based, human
Protocol: (§1) Cells (MDA-MB-231, MDA-MB-468 and BTS-149) were grown until 70-80% density was reached. Then the growth medium was discarded and the cells were treated with trypsin and medium as described above. After the cells were detached from the surface, the 20 ml cell suspension (namely cells in medium and Trypsin) were transferred into 50 ml conical tubes and centrifuged at 300 g for 10 min in 4° C. Next, the supernatant was discarded and 2 ml fresh medium were added to the cell pellet. Then the cells were fluidized and 13 ml medium was added to the tubes, thereby suspending the cells in a total of 15 ml medium. The cells were counted and seeded at 10.000-15,000 cells/well on chamber slide in 1 ml growing medium. The chamber slide seeded with cells was placed in the hood for 1 hour and then transferred to the incubator for an overnight incubation under the above conditions. The following day the medium was aspirated from the cell chamber slides and discarded and 1 ml cell treatment medium supplemented with APC1 (at a final concentration of 100 or 250 μg/ml) or control (medium only). Medium was added to each one of the wells (aliquots of APC1 were used in order to avoid repeated freeze-thaw cycle). The cells were then incubated for 24-144 hours. […]

HER2 = experiment: Immunofluorescence of HER2 in MDA-MB-231 cells; format: cell-based, human
Protocol: as §1

estrogen receptor alpha = experiment: Western blot analysis of estrogen receptor alpha expression in MDA-MB-231 cells; format: cell-based, human; conditions: APC1 250 μg/ml once a week for one week or twice a week for 3 or 4 weeks
Source text: Abbreviations: M, protein parker; c, control; h, hour; w, week.
In view of the results shown above, the expression level of estrogen receptor alpha was directly assayed.

MDA-MB-468 cells = experiment: Resazurin cell viability assay with APC1 and cisplatin or doxorubicin, MDA-MB-468 cells; format: cell-based, human; conditions: MDA-MB-468 pre-incubated with APC1 250 μg/ml; doxorubicin 0.3, 0.5, 1 μM, 48 hours; concentration dependent
Protocol: Cells treated with APC1 were seeded with APC1 at 250 μg/ml. The cells were incubated overnight.
Then the media was aspirated from the plates, and 100 μl of the treatment solutions were added to the appropriate wells, each treatment in triplicates. The cells were incubated for 48 hours.

[1] = system: human TNBC tumors (MDA-MB-231); experiment: Relative tumor volume in nude mice inoculated with TNBC cells; format: in vivo; conditions: MDA-MB-231 tumors
Source text: To this end, mice were inoculated with TNBC cells as detailed above, briefly 32 nude mice were inoculated subcutaneously with TNBC cells (MDA-MB-231, 8×10^6 cells per mouse).

[2] = system: ovarian cancer cells OV90 and OV3; experiment: Glutathione level in ovarian cancer cells treated with APC1; format: cell-based, human; conditions: ovarian cancer cells (FIG. 18A)
Protocol: (§2) Gluthatione Assay Kit (Sigma CS0260);
(§3) Cell lines (MDA-MB-231, MDA-MB-468) were grown in 75 cm^2 cell culture flask, reached 80-90% confluence. The cells were treated with APC1 (250 μg/ml, 2 times per week for 1 week).
(§4) Cells were washed twice with 10 ml PBS, PBS (5 ml) was added and the cells were collected by scrapping, centrifuged at 300G, 4° C. for 5 minutes, the supernatant was then discarded and the cells were treated with APC1 as indicated above. The values of the Glutathione Standard Solutions were used to determine the standard curve and the delta A412/min equivalent to 1 nmole of reduced glutathione per well was calculated according to manufacturer's instructions.
(§5) As detailed above, the ovarian cancer cells OV90 and OV3, the pancreatic cancer cells BxPC3 and Panel and the TNBC cancer cells MDA-MB-231 and MDA-MB-468 were treated with APC1 and then the relative glutathione levels in these cells was measured as detailed above.

[3] = system: TNBC cancer cells MDA-MB-231 and MDA-MB-468; experiment: Glutathione level in TNBC cells treated with APC1; format: cell-based, human; conditions: TNBC cancer cells (FIG. 18C)
Protocol: as §2, §3, §4, §5

Which results are given for “EKGAAFSPIYPRRK (C terminal peptide of KTPAF50) [APC1, polypeptide consisting of the 14 C-terminal amino acid residues of the peptide KTPAF50]”?
dependence of HER2 expression on APC1 concentration (FACS) (HER2 receptor; 100 μg/ml vs 250 μg/ml APC1): concentration dependent; HER2 expression (FACS) (HER2 receptor; MDA-MB-231 cells, two doses of APC1 at 100 or 250 μg/ml, vs control cells): rise in HER2 expression; HER2 expression by immunofluorescence (HER2; single dose 250 μg/ml APC1, 48 hours, vs control cells): clear HER2 expression; HER2 expression by immunofluorescence, multiple doses (HER2; three doses of 250 μg/ml APC1, 144, 96 and 72 hours, vs single dose): enhanced; expression level of estrogen receptor alpha (estrogen receptor alpha): clear increase; sensitivity to doxorubicin (relative cell viability) (MDA-MB-468 cells): increased the sensitivity; effect on tumor volume compared with doxorubicin-treated group ([1]; APC1 15 mg/kg three times a week): more pronounced; relative tumor volume ([1]; APC1 15 mg/kg, doxorubicin 3 mg/kg once a week, 5 weeks, control increased linearly): moderate increase; level of glutathione [2]: decreased; level of glutathione [3]: decreased
